Test results: ChEMBL document CHEMBL1201862, “PubChem BioAssay data set” (2004)
Activity calls are given as the source filed them.

How the values were obtained:
[1] = molecular target: Sphingosine 1-phosphate receptor 1 (Homo sapiens, UniProt P21453); type: functional;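 further: Tango beta-arrestin reporter U2OS cells stimulated with S1P near its EC80; inhibitor potency meaning antagonism of receptor activation by the natural agonist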
[2] = molecular target: T1, Replicative DNA helicase DnaB (Mycobacterium tuberculosis, UniProt P9WMR3); assay: DnaB intein splicing inhibitors, dose response, biochemical, cell-free fluorescence (AID 449749); type: functional
T1 sequence (P9WMR3 whole entry): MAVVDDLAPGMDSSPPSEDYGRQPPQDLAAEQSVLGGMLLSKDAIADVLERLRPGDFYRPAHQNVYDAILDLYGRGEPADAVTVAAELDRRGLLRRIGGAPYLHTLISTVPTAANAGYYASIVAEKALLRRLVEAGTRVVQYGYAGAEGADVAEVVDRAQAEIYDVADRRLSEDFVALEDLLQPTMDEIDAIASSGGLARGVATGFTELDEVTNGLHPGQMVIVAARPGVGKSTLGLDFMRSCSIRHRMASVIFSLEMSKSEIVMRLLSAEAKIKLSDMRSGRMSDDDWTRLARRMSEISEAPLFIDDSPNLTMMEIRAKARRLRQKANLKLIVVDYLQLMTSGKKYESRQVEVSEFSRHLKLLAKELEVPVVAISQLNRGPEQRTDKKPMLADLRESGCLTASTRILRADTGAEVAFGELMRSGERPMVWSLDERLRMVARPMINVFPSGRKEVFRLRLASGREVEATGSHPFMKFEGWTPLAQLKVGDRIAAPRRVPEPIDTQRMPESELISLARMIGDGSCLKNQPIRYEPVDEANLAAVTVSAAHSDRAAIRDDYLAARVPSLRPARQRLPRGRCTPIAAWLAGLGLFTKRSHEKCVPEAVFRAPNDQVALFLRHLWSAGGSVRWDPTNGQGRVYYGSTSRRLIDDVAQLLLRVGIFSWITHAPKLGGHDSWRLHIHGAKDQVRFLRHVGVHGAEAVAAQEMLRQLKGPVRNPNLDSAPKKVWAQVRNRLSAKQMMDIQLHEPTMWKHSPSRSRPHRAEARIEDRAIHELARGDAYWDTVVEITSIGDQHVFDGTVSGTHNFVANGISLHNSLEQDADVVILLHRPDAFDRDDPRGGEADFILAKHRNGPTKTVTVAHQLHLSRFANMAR

Fatty acid synthase [3] = molecular target: T2, Fatty acid synthase (Homo sapiens, UniProt P49327); assay: inhibition of human FAS-TE enzyme activity – biochemical, endpoint fluorescence intensity, uHTS hits, dose response (AID 624327); type: functional;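 further: fluorescence from hydrolysis of an O-methyl fluorescein acyl ester substrate by the enzyme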
T2 sequence (P49327 whole entry): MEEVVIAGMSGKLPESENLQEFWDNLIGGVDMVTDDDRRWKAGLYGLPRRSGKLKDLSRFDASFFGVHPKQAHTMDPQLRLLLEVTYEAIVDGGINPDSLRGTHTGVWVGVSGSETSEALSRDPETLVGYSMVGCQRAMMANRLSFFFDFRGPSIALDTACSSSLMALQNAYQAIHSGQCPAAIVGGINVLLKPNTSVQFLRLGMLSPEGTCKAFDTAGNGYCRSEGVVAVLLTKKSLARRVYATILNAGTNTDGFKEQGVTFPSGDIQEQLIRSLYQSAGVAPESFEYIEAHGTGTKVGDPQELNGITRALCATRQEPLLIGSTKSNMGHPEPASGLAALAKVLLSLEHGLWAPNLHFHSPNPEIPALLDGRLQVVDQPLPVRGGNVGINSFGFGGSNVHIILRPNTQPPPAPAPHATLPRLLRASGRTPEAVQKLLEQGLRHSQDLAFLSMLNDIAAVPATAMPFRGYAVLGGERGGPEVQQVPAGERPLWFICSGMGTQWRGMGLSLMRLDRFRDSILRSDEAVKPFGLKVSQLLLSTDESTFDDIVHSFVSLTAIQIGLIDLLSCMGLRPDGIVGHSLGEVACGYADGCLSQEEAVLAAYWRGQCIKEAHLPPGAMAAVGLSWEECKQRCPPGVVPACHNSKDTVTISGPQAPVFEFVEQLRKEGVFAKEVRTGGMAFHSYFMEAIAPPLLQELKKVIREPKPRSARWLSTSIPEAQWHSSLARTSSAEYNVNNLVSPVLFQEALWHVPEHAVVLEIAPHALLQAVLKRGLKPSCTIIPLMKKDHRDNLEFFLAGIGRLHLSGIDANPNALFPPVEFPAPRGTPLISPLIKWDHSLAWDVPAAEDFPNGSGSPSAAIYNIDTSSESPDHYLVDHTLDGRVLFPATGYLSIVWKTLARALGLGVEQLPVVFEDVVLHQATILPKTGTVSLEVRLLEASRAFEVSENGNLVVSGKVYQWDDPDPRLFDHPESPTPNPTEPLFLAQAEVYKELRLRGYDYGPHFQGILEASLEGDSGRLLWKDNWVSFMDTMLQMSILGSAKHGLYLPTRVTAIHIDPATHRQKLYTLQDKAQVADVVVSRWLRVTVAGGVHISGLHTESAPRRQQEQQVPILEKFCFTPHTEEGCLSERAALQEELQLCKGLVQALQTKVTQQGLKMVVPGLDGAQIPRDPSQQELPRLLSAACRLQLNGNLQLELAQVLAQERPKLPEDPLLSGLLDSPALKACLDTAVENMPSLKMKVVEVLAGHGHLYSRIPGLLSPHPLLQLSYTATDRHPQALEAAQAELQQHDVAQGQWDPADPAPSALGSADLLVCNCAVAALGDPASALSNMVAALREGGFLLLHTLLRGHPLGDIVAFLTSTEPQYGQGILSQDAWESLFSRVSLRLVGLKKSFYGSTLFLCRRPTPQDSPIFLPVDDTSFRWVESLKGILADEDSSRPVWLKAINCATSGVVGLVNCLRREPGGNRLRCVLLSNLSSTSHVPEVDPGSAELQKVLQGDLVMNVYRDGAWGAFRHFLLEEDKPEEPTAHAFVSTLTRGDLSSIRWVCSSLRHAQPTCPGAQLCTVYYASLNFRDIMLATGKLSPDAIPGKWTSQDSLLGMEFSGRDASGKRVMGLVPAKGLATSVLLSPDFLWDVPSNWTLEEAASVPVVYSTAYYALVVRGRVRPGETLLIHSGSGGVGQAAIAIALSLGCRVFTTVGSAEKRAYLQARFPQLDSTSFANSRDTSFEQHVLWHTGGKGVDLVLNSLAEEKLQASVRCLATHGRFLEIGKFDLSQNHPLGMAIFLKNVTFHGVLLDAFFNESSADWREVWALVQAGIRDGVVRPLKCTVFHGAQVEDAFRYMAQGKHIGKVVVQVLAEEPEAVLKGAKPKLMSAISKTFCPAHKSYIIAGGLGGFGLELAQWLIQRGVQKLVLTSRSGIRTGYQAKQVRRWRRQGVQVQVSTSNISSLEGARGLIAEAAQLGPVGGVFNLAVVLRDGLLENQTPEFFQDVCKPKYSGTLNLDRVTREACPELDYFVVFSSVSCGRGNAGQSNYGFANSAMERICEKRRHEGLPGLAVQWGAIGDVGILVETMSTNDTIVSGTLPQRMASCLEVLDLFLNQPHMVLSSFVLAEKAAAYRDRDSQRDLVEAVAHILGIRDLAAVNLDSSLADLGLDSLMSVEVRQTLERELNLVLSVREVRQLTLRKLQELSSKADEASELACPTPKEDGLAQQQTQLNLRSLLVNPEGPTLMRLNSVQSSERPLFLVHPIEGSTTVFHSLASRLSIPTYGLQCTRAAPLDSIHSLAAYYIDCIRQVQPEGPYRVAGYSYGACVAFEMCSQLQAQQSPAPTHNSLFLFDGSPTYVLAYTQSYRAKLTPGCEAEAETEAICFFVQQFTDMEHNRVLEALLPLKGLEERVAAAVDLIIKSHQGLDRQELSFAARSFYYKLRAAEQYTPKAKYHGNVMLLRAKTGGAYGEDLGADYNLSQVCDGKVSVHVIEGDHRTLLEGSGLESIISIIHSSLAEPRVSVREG

[4] = molecular target: T3, Sphingosine 1-phosphate receptor 4 (Homo sapiens, UniProt O95977); assay: Fluorescence dose response cell-based high throughput screening assay for antagonists of the Sphingosine 1-Phosphate Receptor 4 (S1P4). [Related pubchem assays: 1524 (Confirmation in triplicates.), 1510 (Primary screen.)]; type: functional
T3 sequence (O95977 whole entry): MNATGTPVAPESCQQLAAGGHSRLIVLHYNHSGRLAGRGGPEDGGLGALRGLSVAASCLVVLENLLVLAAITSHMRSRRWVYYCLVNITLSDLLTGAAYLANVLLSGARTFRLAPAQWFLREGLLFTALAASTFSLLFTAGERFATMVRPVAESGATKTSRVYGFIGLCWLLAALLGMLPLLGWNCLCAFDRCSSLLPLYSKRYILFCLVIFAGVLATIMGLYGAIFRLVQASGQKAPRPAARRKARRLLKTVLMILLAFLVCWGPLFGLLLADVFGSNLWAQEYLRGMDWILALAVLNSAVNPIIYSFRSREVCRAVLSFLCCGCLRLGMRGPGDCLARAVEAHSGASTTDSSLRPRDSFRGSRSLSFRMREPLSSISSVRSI

Protein RecA = molecular target: T4, Protein RecA (Mycobacterium tuberculosis, UniProt P9WHJ3); assay: Fluorescence Cell-Free Homogeneous Dose Retest to Identify Inhibitors of RecA-Intein Splicing Activity. [Related pubchem assays (depositor defined):AID2097, AID2223, AID489010, AID492950]; type: functional
T4 sequence (P9WHJ3 whole entry): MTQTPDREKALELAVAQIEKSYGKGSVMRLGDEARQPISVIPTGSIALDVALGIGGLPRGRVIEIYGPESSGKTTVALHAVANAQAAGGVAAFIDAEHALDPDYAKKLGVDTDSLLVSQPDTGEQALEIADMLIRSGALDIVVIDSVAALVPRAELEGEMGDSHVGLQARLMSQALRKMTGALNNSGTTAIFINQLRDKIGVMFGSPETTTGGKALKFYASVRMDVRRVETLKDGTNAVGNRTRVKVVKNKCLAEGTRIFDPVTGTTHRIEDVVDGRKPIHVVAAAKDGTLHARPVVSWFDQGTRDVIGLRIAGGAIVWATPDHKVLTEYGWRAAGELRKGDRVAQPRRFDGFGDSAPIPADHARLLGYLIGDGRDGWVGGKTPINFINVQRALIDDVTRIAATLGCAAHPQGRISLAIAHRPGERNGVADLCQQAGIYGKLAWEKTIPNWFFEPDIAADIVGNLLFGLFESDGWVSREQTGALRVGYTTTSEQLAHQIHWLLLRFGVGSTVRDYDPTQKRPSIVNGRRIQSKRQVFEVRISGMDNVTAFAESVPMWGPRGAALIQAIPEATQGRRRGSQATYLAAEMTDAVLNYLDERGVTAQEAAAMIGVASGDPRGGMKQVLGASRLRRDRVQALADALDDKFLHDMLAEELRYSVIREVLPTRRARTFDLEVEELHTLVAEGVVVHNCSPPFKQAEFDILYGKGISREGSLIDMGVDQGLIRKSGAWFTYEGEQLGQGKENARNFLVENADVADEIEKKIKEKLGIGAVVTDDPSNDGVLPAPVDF

Fatty acid synthase [5] = molecular target: T2, Fatty acid synthase; assay: inhibition of human FAS-TE enzyme activity – biochemical, kinetic fluorescence intensity, dose response (AID 624326); type: functional;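 further: rate of fluorescence rise from hydrolysis of a fluorogenic O-methyl fluorescein ester substrate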
[6] = Fluorescence-based cell-based high throughput dose response assay for inhibitors of the interaction of nucleotide-binding oligomerization domain containing 2 (NOD2) and the receptor-interacting serine-threonine kinase 2 (RIPK2).; type: functional; conditions: Homo sapiens
[7] = viability of uninfected HEp-2 cells – cell-based, HTS, cytotoxicity control for RSV inhibitor project, dose response (AID 2410); type: functional; conditions: human respiratory syncytial virus
[8] = fluconazole-exposed Candida albicans growth modulators – fluorescence, retest, confirmation (AID 2467); type: functional, cell-based
[9] = molecular target: T3, Sphingosine 1-phosphate receptor 4; assay: Late stage fluorescence dose response cell-based screening assay for antagonists of the Sphingosine 1-Phosphate Receptor 4 (S1P4). [Related pubchem assays: 1524 (Confirmation screen (S1P4 antagonists).), 1510 (Primary screen (S1P4 antagonists).), 1853 (Summary AID (S1P4 antagonists).), 1692 (Dose response screen (S1P4 antagonists).)]; type: functional
[10] = NIH-3T3 fibroblast cytotoxicity, dose response, cytotoxicity control, cell-based, fluorescence, Alamar Blue, secondary assay (AID 2327); type: functional;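 further: NIH-3T3 mouse fibroblasts cultured with fluconazole at 8 µg/mL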
[11] = molecular target: Heat shock protein HSP 90-alpha (Homo sapiens, UniProt P07900); type: functional, organism-based
Beta Lactamase = Beta Lactamase (Pseudomonas aeruginosa, UniProt Q932Y6); assay: BLA reporter interference, concentration series – BLA reporter cells, FRET fluorescence, artefact control for NOD2-RIPK2 interaction inhibitor project, dose response (AID 651552); type: functional, cell-based
Sequence of Beta Lactamase (Q932Y6 whole entry): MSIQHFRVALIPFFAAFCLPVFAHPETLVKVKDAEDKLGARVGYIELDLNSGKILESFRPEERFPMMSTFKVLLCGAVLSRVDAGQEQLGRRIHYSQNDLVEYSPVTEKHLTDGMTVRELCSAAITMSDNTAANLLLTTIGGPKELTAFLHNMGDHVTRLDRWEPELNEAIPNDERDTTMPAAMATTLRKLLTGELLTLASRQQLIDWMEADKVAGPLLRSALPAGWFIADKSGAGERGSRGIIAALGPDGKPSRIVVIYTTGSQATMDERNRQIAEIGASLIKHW

Danio rerio = assay: In Vivo Angiogenesis Dose-Response Confirmation. [Related pubchem assays: 732 (Assay preceding this confirmatory assay.)]; type: functional, organism-based
[12] = M. tuberculosis H37Rv growth inhibitors, H37Rv strain (AID 1626); type: functional
[13] = A cytotoxicity screen of small molecule inhibitors of the PhoP region in Salmonella typhi identified in the primary screen. [Related pubchem assays: 1850, 1864, 1985 ]; type: functional
[14] = molecular target: T5, Polyadenylate-binding protein 1 (Homo sapiens, UniProt P11940); assay: MLLE domain peptide-binding blockers, IC50 – biochemical, fluorescence polarization, FITC-PAM2 peptide, dose response (AID 602259); type: functional; conditions: read-out: IC50_Mean
T5 sequence (P11940 whole entry, the tested form may be a part): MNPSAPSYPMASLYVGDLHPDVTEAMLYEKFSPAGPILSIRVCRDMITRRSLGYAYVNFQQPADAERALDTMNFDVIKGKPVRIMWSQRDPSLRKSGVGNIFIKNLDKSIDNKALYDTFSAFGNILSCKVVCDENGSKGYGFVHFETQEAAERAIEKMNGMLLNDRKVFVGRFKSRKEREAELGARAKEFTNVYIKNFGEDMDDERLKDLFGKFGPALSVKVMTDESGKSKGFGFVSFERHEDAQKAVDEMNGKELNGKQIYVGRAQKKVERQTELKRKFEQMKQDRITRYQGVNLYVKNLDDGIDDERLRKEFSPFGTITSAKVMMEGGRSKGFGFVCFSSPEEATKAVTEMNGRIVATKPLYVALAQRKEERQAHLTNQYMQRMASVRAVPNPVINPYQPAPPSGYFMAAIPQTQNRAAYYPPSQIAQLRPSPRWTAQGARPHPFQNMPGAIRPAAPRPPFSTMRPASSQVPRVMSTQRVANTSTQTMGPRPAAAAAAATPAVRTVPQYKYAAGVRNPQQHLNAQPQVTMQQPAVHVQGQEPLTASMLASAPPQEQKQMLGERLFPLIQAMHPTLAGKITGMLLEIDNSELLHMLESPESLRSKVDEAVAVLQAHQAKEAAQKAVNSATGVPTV

[15] = molecular target: Protein-tyrosine kinase 2-beta (Homo sapiens, UniProt Q14289);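 further: potency of inhibitors of PYK2 kinase phosphorylation of poly-GT substrate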
Sequence of Protein-tyrosine kinase 2-beta (Q14289 whole entry): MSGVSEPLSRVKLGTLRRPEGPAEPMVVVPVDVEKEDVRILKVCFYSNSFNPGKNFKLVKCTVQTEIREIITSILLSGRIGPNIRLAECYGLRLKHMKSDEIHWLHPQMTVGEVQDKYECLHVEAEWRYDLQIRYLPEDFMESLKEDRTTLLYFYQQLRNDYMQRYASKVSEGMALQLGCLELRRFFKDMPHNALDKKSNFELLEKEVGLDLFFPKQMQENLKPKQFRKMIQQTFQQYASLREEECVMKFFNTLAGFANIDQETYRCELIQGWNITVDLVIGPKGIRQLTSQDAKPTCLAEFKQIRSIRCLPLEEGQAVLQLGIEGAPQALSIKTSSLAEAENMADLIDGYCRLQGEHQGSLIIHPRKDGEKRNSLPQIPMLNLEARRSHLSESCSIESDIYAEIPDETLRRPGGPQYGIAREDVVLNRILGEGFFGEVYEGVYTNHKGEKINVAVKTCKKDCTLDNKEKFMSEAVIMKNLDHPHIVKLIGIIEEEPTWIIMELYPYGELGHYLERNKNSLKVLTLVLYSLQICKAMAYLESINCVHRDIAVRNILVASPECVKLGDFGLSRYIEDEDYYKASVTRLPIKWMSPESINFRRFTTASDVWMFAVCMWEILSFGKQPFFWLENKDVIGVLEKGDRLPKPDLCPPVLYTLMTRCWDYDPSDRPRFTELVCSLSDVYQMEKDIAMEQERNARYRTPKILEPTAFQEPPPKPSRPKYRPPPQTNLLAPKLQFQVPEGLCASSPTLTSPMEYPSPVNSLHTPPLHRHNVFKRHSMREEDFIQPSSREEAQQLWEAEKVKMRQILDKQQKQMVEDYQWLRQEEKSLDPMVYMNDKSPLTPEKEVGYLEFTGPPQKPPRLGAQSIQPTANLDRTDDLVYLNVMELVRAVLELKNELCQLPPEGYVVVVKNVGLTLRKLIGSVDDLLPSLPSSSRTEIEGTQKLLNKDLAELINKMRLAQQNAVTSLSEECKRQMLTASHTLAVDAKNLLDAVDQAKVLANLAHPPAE

[16] = molecular target: T5, Polyadenylate-binding protein 1; assay: MLLE binding blockers, Cy5 peptide tracer – biochemical, fluorescence polarization, Cy5-PAM2 peptide, secondary, miRNA deadenylation inhibitor project, dose response (AID 602260); type: functional; conditions: read-out: IC50_Mean

Sequence of Sphingosine 1-phosphate receptor 1 (P21453 whole entry): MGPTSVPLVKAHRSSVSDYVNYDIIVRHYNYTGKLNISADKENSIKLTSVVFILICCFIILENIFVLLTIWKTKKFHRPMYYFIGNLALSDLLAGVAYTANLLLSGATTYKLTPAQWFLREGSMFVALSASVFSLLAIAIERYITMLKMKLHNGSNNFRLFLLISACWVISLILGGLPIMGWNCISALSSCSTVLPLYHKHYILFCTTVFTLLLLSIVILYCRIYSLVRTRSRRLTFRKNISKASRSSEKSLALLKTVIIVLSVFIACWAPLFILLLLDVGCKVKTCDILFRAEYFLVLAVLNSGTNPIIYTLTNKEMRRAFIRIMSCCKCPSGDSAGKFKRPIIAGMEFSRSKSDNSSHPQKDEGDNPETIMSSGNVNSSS

SMILES: O=C(Nc1ccccc1)c1nnsc1S(=O)(=O)c1ccc(Cl)cc1
- IC50 [1]: 23.4 µM (not active)
- AC50 [2]: 3.53 µM (active)
- IC50 (Fatty acid synthase [3]): 8 µM (active)
- IC50 [4]: 1.04 µM (active)
- EC50 (Protein RecA): 5.71 µM (active)
- IC50 (Fatty acid synthase [5]): 5.14 µM (active)
- IC50 [6]: 3.5 µM (active)
- CC50 [7]: 13.4 µM (active)
- EC50 [8]: > 38 µM (not active)
- IC50 [9]: 11.2 µM (not active)
- EC50 [10]: 9.03 µM (active)
- AC50 [11]: 293 nM (active)
- IC50 (Beta Lactamase): 18.8 µM (inactive)

SMILES: Cc1ccc2c(c1)/C(=C1/Nc3ccc(Br)cc3/C1=N\OCCN1CCNCC1)C(=O)N2
- IC50 (Danio rerio): 3.28 µM (not active)

SMILES: Cc1cc(C(=O)Cn2cncn2)c(C)n1CCc1ccc(F)cc1
- IC50 [12]: > 100 µM (active)
- EC50 [13]: > 50 µM (active)

SMILES: CCOC(=O)CSc1nc(C2CC2)nc2ccccc12
- IC50 [14]: > 66 µM (inactive)
- IC50 [15]: > 69.5 µM (not active)
- IC50 [16]: > 66 µM (inactive)
